From ChEMBL document CHEMBL1157642, “2-Amino-5-benzoyl-4-phenylthiazoles: Development of potent and selective adenosine A1 receptor antagonists” (Bioorg Med Chem, 2010)
Values belong to the compound of their own block, whether it stands above or below them.

Assays:
Adenosine receptor A3 [1] = biological target: T1, Adenosine receptor A3 (Ovis aries, UniProt P35342); assay: Binding affinity to sheep adenosine A3 receptor
T1 sequence (P35342 whole entry): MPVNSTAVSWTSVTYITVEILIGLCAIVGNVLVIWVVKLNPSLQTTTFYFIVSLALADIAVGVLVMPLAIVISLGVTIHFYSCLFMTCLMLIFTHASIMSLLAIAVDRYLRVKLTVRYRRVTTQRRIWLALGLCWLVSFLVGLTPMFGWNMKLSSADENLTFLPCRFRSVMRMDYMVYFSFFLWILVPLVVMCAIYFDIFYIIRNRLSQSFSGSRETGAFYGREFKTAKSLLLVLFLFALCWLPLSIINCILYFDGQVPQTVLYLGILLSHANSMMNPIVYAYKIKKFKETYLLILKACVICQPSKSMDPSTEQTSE

Adenosine receptor A2a [2] = biological target: Adenosine receptor A2a (Cavia porcellus, UniProt P46616); assay: Binding affinity to guinea pig adenosine A2A receptor
Adenosine receptor A1 [3] = biological target: T2, Adenosine receptor A1 (Cavia porcellus, UniProt P47745); assay: Binding affinity to guinea pig adenosine A1 receptor
T2 sequence (P47745 whole entry): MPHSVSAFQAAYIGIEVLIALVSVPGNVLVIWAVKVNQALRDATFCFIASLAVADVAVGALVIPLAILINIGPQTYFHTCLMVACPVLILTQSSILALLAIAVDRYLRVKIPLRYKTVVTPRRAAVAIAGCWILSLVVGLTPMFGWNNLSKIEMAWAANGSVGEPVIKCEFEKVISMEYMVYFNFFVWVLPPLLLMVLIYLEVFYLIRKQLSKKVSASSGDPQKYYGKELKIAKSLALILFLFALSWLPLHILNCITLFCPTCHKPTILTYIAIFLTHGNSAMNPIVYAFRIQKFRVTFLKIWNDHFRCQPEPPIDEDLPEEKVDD

Adenosine receptor A2a [4] = biological target: Adenosine receptor A2a (Homo sapiens, UniProt P29274)
Adenosine receptor A1 [5] = biological target: T3, Adenosine receptor A1 (Homo sapiens, UniProt P30542); assay: Binding affinity to human adenosine A1 receptor
T3 sequence (P30542 whole entry): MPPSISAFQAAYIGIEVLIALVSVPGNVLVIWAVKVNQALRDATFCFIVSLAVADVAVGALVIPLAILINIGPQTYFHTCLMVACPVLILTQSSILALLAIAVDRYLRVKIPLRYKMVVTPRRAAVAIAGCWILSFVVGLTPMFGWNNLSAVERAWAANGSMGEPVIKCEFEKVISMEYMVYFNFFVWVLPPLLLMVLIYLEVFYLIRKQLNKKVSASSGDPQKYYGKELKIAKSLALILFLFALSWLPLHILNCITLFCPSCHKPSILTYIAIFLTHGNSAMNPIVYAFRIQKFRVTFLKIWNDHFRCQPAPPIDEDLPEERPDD

[6] = biological target: T4, Adenosine receptor A2b (Homo sapiens) (UniProt P29275); assay: Antagonist activity at human adenosine A2B receptor; type: functional
T4 sequence (whole entry): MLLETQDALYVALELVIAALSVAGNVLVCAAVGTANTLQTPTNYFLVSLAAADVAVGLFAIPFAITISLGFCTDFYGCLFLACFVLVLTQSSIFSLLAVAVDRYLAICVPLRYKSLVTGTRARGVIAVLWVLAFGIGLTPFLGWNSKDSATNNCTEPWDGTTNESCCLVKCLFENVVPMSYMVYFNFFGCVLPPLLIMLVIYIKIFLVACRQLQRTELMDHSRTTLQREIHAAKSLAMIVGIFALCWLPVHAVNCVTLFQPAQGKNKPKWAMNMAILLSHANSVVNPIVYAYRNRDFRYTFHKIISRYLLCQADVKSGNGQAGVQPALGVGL

Adenosine receptor A3 [7] = biological target: T5, Adenosine receptor A3 (Rattus norvegicus, UniProt P28647)
T5 sequence (P28647 whole entry): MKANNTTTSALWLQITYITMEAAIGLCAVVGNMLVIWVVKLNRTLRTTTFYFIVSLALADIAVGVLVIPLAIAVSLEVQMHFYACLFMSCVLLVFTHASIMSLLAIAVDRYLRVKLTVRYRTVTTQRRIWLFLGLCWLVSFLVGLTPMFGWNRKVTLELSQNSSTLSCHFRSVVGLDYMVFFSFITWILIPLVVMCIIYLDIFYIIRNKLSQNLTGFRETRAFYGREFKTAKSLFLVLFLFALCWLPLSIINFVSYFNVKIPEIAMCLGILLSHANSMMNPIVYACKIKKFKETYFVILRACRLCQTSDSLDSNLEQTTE

Adenosine receptor A2a (Homo sapiens, UniProt P29274), sequence (P29274 whole entry): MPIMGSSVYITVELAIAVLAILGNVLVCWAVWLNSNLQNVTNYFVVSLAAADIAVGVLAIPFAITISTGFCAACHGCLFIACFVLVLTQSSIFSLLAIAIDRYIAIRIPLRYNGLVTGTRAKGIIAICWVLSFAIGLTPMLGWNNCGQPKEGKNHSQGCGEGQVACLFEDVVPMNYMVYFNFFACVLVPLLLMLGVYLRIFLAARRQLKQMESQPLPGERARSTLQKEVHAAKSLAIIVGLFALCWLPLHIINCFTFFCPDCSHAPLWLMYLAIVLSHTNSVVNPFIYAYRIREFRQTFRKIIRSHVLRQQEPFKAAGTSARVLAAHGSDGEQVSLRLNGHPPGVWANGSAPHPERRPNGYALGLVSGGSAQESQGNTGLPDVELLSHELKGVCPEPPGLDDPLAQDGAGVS
Adenosine receptor A2a (Cavia porcellus, UniProt P46616), sequence (P46616 whole entry): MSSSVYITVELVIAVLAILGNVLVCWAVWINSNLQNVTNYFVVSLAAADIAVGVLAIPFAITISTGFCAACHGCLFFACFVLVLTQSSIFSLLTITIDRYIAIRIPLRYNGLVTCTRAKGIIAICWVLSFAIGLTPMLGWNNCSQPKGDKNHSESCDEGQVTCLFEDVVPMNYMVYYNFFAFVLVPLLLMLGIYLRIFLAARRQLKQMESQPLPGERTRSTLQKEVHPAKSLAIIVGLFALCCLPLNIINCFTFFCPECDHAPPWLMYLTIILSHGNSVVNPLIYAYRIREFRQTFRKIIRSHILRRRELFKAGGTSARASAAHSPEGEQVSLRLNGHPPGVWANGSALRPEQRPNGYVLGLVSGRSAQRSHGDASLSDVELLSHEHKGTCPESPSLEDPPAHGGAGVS

- Ki (Adenosine receptor A3 [1]): 0.0414 µM
- Ki (Adenosine receptor A2a [2]): 3.75 µM
- Ki (Adenosine receptor A1 [3]): 0.375 µM
Compound: Cn1cnc2c(N[C@H]3C[C@H]4CC[C@@H]3C4)ncnc21

- Ki (Adenosine receptor A2a [4]): > 10 µM
- Ki (Adenosine receptor A1 [5]): > 10 µM
- Kb [6]: 3.2 µM
Compound: COc1cc(-c2nc(NC(C)=O)sc2-c2ccncc2)cc(OC)c1OC

Compound: Cn1c(=O)c2[nH]cnc2n(C)c1=O [THEOPHYLLINE]
- Ki (Adenosine receptor A3 [7]): 85 µM
